From ChEMBL document CHEMBL5370675, “Identification of HuR-RNA Interfering Compounds by Dynamic Combinatorial Chemistry and Fluorescence Polarization” (ACS Med Chem Lett, 2023)
Calls of active or inactive are those of the source. The rule behind the calls is not given here.

Tests used:
[1] = biological target: ELAV-like protein 1 (Homo sapiens) (UniProt Q15717); assay: Inhibition of HuR (unknown origin) assessed as reduction in protein-mRNA interaction at 0.5 to 100 uM preincubated for 1 hr followed by mRNA addition and measured after 1.5 hrs by fluorescence polarization assay; details: dose 0.5-100 µM, time 2.5 hrs
[2] = Retention time of the compound in acetate buffer by HPLC-UV analysis; assay type: physicochemical

Chain of ELAV-like protein 1 (Homo sapiens) (Q15717 whole entry): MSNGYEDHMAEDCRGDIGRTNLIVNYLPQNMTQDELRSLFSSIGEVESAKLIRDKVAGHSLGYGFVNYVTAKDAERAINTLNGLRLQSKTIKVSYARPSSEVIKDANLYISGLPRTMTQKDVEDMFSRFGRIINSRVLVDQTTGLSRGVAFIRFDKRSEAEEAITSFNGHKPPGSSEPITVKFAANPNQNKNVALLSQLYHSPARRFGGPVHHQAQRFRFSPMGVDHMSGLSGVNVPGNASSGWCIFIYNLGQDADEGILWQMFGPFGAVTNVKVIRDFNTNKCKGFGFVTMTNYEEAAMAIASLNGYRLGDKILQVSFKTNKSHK

inhibition [1]	Retention_time [2] [min]	Compound
Active	12.86	O=C(COc1ccc(Cl)cc1Cl)N/N=C/c1csc(Br)n1
Active	–	Cc1cccc(Cn2nc(C(C)(C)C)cc2C(=O)N/N=C/c2ccc3cn[nH]c3c2)c1
Active	–	Cc1cccc(Cn2nc(C(C)(C)C)cc2C(=O)N/N=C/c2csc(Br)n2)c1
